According to patent US20220040179A1, “USE OF CDK8/19 INHIBITORS FOR TREATMENT OF ESTABLISHED COLON CANCER HEPATIC METASTASIS” (University of South Carolina, priority 2017, published 2022):

What was measured:
[1] = test system: CT26 cells; experiment: splenic injection model, CT26 cells: spleen (primary tumor) and liver (metastatic tumor) weights; assay type: in vivo, mouse; details: 40 mg/kg daily i.p., 16 days, BALB/c mice
Protocol: To compare the effects of CDK8/19 inhibition on primary and metastatic tumor growth, we used a splenic injection model (Lafreniere and Rosenberg, 1986; Zhang et al., 2009), where tumor cells are injected in the spleen, from where they metastasize into the liver. In the study shown in FIG. 4, 2×10^5 CT26 cells were injected into the spleens of 8 weeks old female BALB/c mice, and mice were treated by daily i.p. injection of Senexin B dichloride (40 mg/kg) in 10 mM citrate buffer, pH6, 150 mM NaCl or with vehicle control (n=9). 1 6 days later, mice were sacrificed and the weights of tumor-containing spleens (primary tumor) and livers (metastatic tumor) were measured.
Mice were sacrificed 16 days after tumor cell inoculation into the spleen and spleens and livers were weighed.

[2] = test system: CT26 tumors; experiment: primary CT26 tumors implanted subcutaneously in BALB/c mice; assay type: in vivo, mouse; details: unmodified CT26 cells, female BALB/c mice; 50 mg/kg by gavage b.i.d. in CD vehicle vs vehicle
Protocol: We further investigated the effects of CDK8/19 inhibition or knockdown on the growth of primary CT26 tumors implanted subcutaneously (s.c.), at I xl 0^6 cells, in 8 weeks-old female BALB/c mice (n=I0). FIG. 3A compares the dynamics of tumor growth and final tumor weights for CT26 cells transduced with insert-free pLK0.1 (vector control) or shCDK8-1. […] FIG. 3B compares s.c. tumor growth of unmodified CT26 cells in mice treated with Senexin B dimaleate, administered by gavage at 50 mg/kg doses (weight doses calculated for Senexin B dimaleate rather than free Senexin B) in 6.25% 2-Hydroxypropyl-cyclodextrin, I % Dextrose buffer (CD vehicle), b.i.d. or with the vehicle control.

[3] = test system: CT26 cells; experiment: splenic injection model, CT26 cells: timing of drug administration, liver weights two weeks after inoculation; assay type: in vivo, mouse; details: 50 mg/kg gavage b.i.d.
Protocol: To determine if the anti-metastatic effects of CDK8/19 inhibition observed in the splenic injection model were due to the prevention of the initial establishment of hepatic metastases or growth inhibition of already-established metastases, we asked whether Senexin B can inhibit metastatic growth in the liver when the drug is administered after the metastases have been established. […] We compared the effects of Senexin B dimaleate on hepatic metastasis, when the drug was administered by gavage at 50 mg/kg doses in CD vehicle, b.i.d. two days prior to splenic inoculation, during the first week after inoculation, during the second week after inoculation, or over the entire two-week period following splenic inoculation of CT26 cells.

[4] = test system: CT26 cells; experiment: survival of mice after splenic injection of CT26 cells followed by removal of the spleen; assay type: in vivo, mouse
Protocol: (§1) We have analyzed the survival of mice after splenic injection of 2×10^5 CT26 cells into 8 week old female BALB/c mice, followed by removal of the spleen 1 minute after injection. Mice were sacrificed when paralysis, lack of movement or paleness (due to abdominal hemorrhage) occurred. […] To establish serum drug concentrations associated with therapeutic efficacy in this model, we conducted a similar survival study where Senexin B dimaleate was administered by mixing the drug into mouse food, which provides for sustained drug delivery over time. Senexin B was mixed into food at two concentrations differing approximately 4-fold and designated low-dose and high-dose. Serum samples were collected from treated mice and Senexin B in the serum was measured by a LC/MS/MS assay.

[5] = Senexin B serum concentration by LC/MS/MS in mice on medicated diet; assay type: in vivo, mouse
Protocol: as §1

[6] = toxicity and body weight in mice receiving Senexin B diet; assay type: in vivo; details: Senexin B diet relative to control diet
Protocol: as §1

[7] = test system: human HCTl 16 colon cancer cells; experiment: splenic injection model, human HCT116 cells in athymic nude mice: liver weights; assay type: in vivo; details: 50 mg/kg by gavage b.i.d. in CD vehicle, 7 weeks after inoculation
Protocol: The splenic injection model was used to test the effect of Senexin B on hepatic metastasis of human HCTl 16 colon cancer cells, which are […] to small-molecule CDK8/19 inhibitors (Koehler et al., 2016; Pelish et al., 2015; Porter et al., 2012). 1×10^6 HCTl 16 cells were injected into the spleens of athymic nude (nu/nu) mice (JAX #002019) mice (female, 8 weeks old), and spleens were removed 1 min later. Mice were treated with Senexin B dimaleate (50 mg/kg by gavage in CD vehicle, b.i.d.) or vehicle control (n=10). 7 weeks after tumor cell inoculation, mice were sacrificed and livers with tumor metastases (FIG. 8A) were collected.

[8] = test system: CT26 colon cancer cells; experiment: in vitro growth of CT26 cells; assay type: cell-based, murine; details: 1 uM, 5-day assay
From the text: To investigate the role of CDK8/19 in colon cancer growth and metastasis, we used murine CT26 colon cancer cell line, derived from a BALB/c mouse following chemical carcinogenesis (Griswold and Corbett, 1975). Cells were propagated in RPMI1640 medium with 10% Fetal Bovine Serum.

SMILES: CN1CCN(C(=O)c2ccc3cc(CCNc4ncnc5ccc(C#N)cc45)ccc3c2)CC1.Cl.Cl [Senexin B dichloride]
- metastatic tumor growth in the liver (liver weight, tumor area) [1]: strongly inhibited metastatic tumor growth in the liver
- primary tumor growth in the spleen (spleen weight) [1]: no effect on the primary tumor growth in the spleen

SMILES: CN1CCN(C(=O)c2ccc3cc(CCNc4ncnc5ccc(C#N)cc45)ccc3c2)CC1.O=C(O)/C=C\C(=O)O.O=C(O)/C=C\C(=O)O [Senexin B dimaleate]
- s.c. tumor growth [2]: not statistically significant
- liver metastasis (liver weight) ([3]; administered two days prior to splenic inoculation): no effect on liver metastasis
- metastatic growth in the liver (liver weight) ([3]; both weeks after inoculation): equally efficient in suppressing metastatic growth in the liver
- liver metastasis (liver weight) ([3]; during the first week after inoculation): decreased the liver weights but this effect did not reach statistical significance
- metastatic growth in the liver (liver weight) ([3]; only the second week after inoculation): equally efficient in suppressing metastatic growth in the liver
- survival (Kaplan-Meyer) ([4]; combination: mice inoculated with shCDK8-1 cells and treated with Senexin B, 50 mg/kg gavage b.i.d.): increased the survival time even further
- survival (Kaplan-Meyer), efficiency of diet ([4]; low-dose diet (drug mixed into food) compared with high-dose diet): at least as efficient as the high-dose diet
- survival (Kaplan-Meyer) ([4]; mice inoculated with vector control cells, 50 mg/kg gavage b.i.d. in CD vehicle): prolonged the survival
- average serum concentration ([5]; high-dose diet): 206 nM
- average serum concentration ([5]; low-dose diet): 58 nM
- toxicity [6]: no apparent toxicity
- mouse body weight ([6]; days 8 and 15 after surgery): no significant change in mouse body weight
- hepatic tumor growth (liver weights) [7]: strong inhibition of hepatic tumor growth

SMILES: CN1CCN(C(=O)c2ccc3cc(CCNc4ncnc5ccc(C#N)cc45)ccc3c2)CC1 [Senexin B]
- in vitro growth inhibition of CT26 cells [8]: no significant growth inhibition
